Data on 2 molecules can be found in patent US9840508B2, “N-acyl-(3-substituted)-(8-methyl)-5,6-dihydro-[1,2,4]triazolo[4,3-a] pyrazines as selective NK-3 receptor antagonists, pharmaceutical composition, methods for use in NK-3 receptor-mediated disorders” (EUROSCREEN SA, priority 2013, dated 2017).

A value given as a limit tells only on which side of the number the result lay.

The IC50 is the concentration at which inhibition is half-maximal. Usually Ki stands for a dissociation constant, usually derived from enzyme kinetics or from competition with a known ligand.

The target of one data set is human NK-3 receptor (Homo sapiens (Human), UniProt P29371). As to the kind of experiment: Aequorin functional assay with human NK-3 receptor (antagonist testing). The settings on record: CHO cells expressing human NK-3 receptor; agonist NKA at EC80 (3 nM); read-out: Functional assay: Aequorin assay with human NK-3 receptor hNK-3 - AEQ (antagonist IC50). The format is cell-based. The protocol:
Aequorin Assay with Human NK-3 Receptor
Changes in intracellular calcium levels are a recognized indicator of G protein-coupled receptor activity. The efficacy of compounds of the invention to inhibit NKA-mediated NK-3 receptor activation was assessed by an in vitro Aequorin functional assay. Chinese Hamster Ovary recombinant cells expressing the human NK-3 receptor and a construct that encodes the photoproteinapoaequorin were used for this assay. In the presence of the cofactor coelenterazine, apoaequorin emits a measurable luminescence that is proportional to the amount of intracellular (cytoplasmic) free calcium.
The antagonist activity of compounds of the invention is measured following pre-incubation (3 minutes) of the compound (at various concentrations) with the cells, followed by addition of the reference agonist (NKA) at a final concentration equivalent to the EC80 (3 nM) and recording of emitted light (FDSS 6000 Hamamatsu) over the subsequent 90-second period. The intensity of the emitted light is integrated using the reader software. Compound antagonist activity is measured based on the concentration-dependent inhibition of the luminescence response to the addition of Neurokinin A.
The IC50 values shown in Table 2 indicate that compounds of the invention are potent NK-3 antagonist compounds.

The target of another data set is human NK-1 receptor (Homo sapiens (Human), UniProt P25103). Kind of data set: Selectivity binding assay, human NK-1 ([3H] substance P). The settings on record: CHO cell membranes; 2 nM [3H] substance P; read-out: hNK-1 (Ki). The protocol:
Selectivity of the compounds of the invention was determined over the other human NK receptors, namely NK-1 and NK-2 receptors.
The affinity of compounds of the invention for the NK-1 receptor was evaluated in CHO recombinant cells which express the human NK-1 receptor. Membrane suspensions were prepared from these cells. The following radioligand: [^3H] substance P (PerkinElmer Cat#NET111520) was used in this assay. Binding assays were performed in a 50 mM Tris/5 mM MnCl2/150 mM NaCl/0.1% BSA at pH 7.4. Binding assays consisted of 25 μl of membrane suspension (approximately 5 μg of protein/well in a 96 well plate), 50 μl of compound or reference ligand (Substance P) at increasing concentrations (diluted in assay buffer) and 2 nM [^3H] substance P. The plate was incubated 60 min at 25° C. in a water bath and then filtered over GF/C filters (Perkin Elmer, 6005174, presoaked in 0.5% PEI for 2 h at room temperature) with a Filtration unit (Perkin Elmer). The radioactivity retained on the filters was measured by using the TopCount-NXT reader (Packard). Competition curves were obtained for compounds of the invention and the concentrations of compounds which displaced 50% of bound radioligand (IC50) were determined and then apparent inhibition constant Ki values were calculated by the following equation: Ki=IC50/(1+[L]/KD) where [L] is the concentration of free radioligand and KD is its dissociation constant at the receptor, derived from saturation binding experiments (Cheng and Prusoff, 1973).

The subject of another data set is plasma protein. Kind of data set: Determination of plasma protein binding (rapid equilibrium dialysis). The format is in vitro ADME. The conditions noted are these: 4 hours at 37° C. The text has this: Determination of Plasma Protein Binding
The pharmacokinetic and pharmacodynamic properties of chemicals/drugs are largely a function of the reversible binding of chemicals to plasma or serum proteins. Generally, only the unbound or “free fraction” of a drug is available for diffusion or transport across cell membranes, and for interaction with a pharmacological/toxicological target. Consequently, the extent of the plasma protein binding (PPB) of a compound influences its action as well as its distribution and elimination.
The determination of plasma protein binding (PPB) of a compound is enabled by equilibrium dialysis, an accepted and standard method for reliable estimation of the non-bound drug fraction in plasma. RED (Rapid Equilibrium Dialysis) device insert is made of two side-by-side chambers separated by an O-ring-sealed vertical cylinder of dialysis membrane (MWCO˜8,000). Plasma containing drug (at 5 μM or blood concentrations otherwise corresponding to efficacious doses, if known) is added to one chamber while buffer is added to the second. After 4 hours incubation at 37° C. under shaking, an aliquot is removed from each chamber and analyzed by a LC-MS/MS procedure enables the determination of both free and bound drug.
The percentages provided in Table 4 represent for the compounds of the invention the bound drug fraction to the plasma protein. The “free fraction” may be calculated as 100%−% rPPB (i.e. the complementary percentage of that disclosed in Table 4, corresponding to the drug concentration that is unbound and therefore available to engage biological target and elicit pharmacological activity).
In general terms: Equilibrium dialysis compares concentrations on both sides of a semipermeable membrane.

Another data set addresses hERG channel (Homo sapiens (Human), UniProt Q12809). As to the kind of experiment: hERG inhibition assay (manual patch-clamp, HEK 293 cells). The format is cell-based. The conditions noted are these: HEK 293 cells stably transfected with hERG, read-out: CardioSafety (hERG IC50). The source says:
The human ether-a-go-go related gene (hERG) encodes the inward rectifying voltage gated potassium channel in the heart (IKr) which is involved in cardiac repolarisation. […] IKr current inhibition accounts for the vast majority of known cases of drug-induced QT-prolongation. A number of drugs have been withdrawn from late stage clinical trials due to these cardiotoxic effects, therefore it is important to identify inhibitors early in drug discovery.
The hERG inhibition study aims at quantifying the in vitro effects of compounds of the invention on the potassium-selective IKr current generated in normoxic conditions in stably transfected HEK 293 cells with the human ether-a-go-go-related gene (hERG).
Whole-cell currents (acquisition by manual patch-clamp) elicited during a voltage pulse were recorded in baseline conditions and following application of tested compounds (5 minutes of exposure). The concentrations of tested compounds (0.3 μM; 3 μM; 10 μM; 30 μM) reflect a range believed to exceed the concentrations at expected efficacy doses in preclinical models. […]
The current density recorded were normalized against the baseline conditions and corrected for solvent effect and time-dependent current run-down using experimental design in test compound free conditions. […]
(Block of hERG is tested as a sign of cardiac risk.)

human NK-1 receptor, sequence (P25103 whole entry): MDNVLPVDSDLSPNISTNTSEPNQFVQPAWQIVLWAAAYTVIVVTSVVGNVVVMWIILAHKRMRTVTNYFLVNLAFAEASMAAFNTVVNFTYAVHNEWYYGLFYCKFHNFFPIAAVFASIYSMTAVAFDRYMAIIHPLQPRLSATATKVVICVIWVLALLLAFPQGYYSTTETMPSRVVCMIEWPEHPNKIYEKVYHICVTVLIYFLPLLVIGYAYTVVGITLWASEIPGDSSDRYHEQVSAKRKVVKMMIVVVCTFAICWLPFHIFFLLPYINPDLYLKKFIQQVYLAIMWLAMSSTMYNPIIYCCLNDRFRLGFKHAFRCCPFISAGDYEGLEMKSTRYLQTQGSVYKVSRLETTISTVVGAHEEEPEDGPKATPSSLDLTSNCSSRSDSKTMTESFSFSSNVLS
human NK-3 receptor, sequence (P29371 whole entry): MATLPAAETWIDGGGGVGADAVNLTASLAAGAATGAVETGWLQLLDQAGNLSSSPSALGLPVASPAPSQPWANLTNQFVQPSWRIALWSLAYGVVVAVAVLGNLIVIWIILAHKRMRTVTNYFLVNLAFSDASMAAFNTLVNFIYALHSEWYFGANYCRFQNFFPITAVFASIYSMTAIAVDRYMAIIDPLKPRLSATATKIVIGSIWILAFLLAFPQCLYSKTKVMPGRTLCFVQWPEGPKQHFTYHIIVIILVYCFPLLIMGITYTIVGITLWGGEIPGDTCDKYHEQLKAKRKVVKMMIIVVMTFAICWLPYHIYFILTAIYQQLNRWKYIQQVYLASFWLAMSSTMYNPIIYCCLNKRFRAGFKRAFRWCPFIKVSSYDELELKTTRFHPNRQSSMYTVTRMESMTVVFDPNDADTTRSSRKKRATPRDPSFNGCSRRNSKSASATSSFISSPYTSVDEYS
hERG channel, sequence (Q12809 whole entry): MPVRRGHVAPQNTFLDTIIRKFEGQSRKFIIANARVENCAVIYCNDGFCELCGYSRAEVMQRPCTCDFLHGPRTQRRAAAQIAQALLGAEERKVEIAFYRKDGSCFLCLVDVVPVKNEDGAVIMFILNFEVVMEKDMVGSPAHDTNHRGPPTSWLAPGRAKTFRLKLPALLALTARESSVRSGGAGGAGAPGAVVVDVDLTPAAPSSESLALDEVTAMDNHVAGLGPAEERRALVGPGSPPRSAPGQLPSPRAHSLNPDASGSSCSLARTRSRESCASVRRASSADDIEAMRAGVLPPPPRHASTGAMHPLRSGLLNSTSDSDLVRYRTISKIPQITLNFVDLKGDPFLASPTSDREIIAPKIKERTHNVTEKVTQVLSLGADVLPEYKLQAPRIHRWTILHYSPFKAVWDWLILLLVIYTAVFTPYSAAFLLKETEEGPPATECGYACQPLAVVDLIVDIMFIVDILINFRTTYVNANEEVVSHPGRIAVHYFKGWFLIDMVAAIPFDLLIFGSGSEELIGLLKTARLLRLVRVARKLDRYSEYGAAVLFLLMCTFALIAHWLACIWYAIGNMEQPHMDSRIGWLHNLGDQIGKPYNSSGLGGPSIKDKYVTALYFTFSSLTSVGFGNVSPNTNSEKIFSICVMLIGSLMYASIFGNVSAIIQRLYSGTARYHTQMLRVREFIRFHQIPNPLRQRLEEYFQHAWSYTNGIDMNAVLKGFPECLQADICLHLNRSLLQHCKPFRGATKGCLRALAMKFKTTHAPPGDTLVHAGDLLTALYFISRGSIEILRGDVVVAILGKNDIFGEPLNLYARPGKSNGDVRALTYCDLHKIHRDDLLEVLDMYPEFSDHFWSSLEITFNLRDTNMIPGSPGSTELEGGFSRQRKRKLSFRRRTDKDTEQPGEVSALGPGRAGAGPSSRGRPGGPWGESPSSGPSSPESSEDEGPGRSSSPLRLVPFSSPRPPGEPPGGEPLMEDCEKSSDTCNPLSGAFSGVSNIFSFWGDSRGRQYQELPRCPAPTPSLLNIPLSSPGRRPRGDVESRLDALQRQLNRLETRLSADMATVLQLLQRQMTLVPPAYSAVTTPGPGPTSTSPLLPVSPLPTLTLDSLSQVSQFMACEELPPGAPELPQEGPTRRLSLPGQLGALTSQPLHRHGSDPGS

For the molecule `C[C@@H]1c2nnc(-c3csc(C(F)(F)F)n3)n2CCN1C(=O)c1ccc(F)cc1` [Compound 3, (R)-(4-fluorophenyl)(8-methyl-3-(2-(trifluoromethyl)thiazol-4-yl)-5,6-dihydro-[1,2,4]triazolo[4,3-a]pyrazin-7(8H)-yl)methanone], the concentration for half-maximal inhibition (IC50) on human NK-3 receptor was 0.02 µM; on hERG channel, 70 µM. The Ki at human NK-1 receptor was greater than 30 µM. The “Exposure (% rPPB), bound drug fraction to the plasma protein” value in the data set on plasma protein was determined as 50%.
On the same counts, the results for `Cc1ccc(-c2nnc3n2CCN(C(=O)c2ccc(F)cc2)[C@@H]3C)o1` [Compound 1, (R)-(4-fluorophenyl)(8-methyl-3-(5-methylfuran-2-yl)-5,6-dihydro-[1,2,4]triazolo[4,3-a]pyrazin-7(8H)-yl)methanone] are 0.06 µM, 31 µM, greater than 30 µM and 28%.
